Assay results from US20180353501A1 (Arvinas, Inc., priority 2017, published 2018).

Test system: p38α and p38δ mRNA
Assay: Quantitative real-time PCR in MDA-MB-231 cells
Type: cell-based
Details: 250 nM, 24 hours
Description: FIGS. 13A, 13B, 13C, and 13D. Exemplary compounds 50 and 46 degrade p38 isoforms in a manner that is rapid, sustained, and proteasome-dependent. (A) MDA-MB-231 cells were either pre-treated or not with the proteasome inhibitor epoxomicin (1 μM) or the neddylation inhibitor MLN4924 (1 μM) for 30 minutes and subsequently treated with either vehicle (DMSO), exemplary compound 50 (250 nM), or exemplary compound 46 (250 nM) for 6 hours. (B) Quantitative real-time PCR was performed after 24 hours of treatment with either vehicle (DMSO), exemplary compound 50 (250 nM), or exemplary compound 46 (250 nM) in MDAMB-231 cells. […]
MDA-MB-231 cells were plated at 3×10^5 cells per well in a 6-well dish, allowed to adhere, and were treated with either vehicle (DMSO) or PROTAC (250 nM) for 24 hours. […] RNA pellet was washed twice with 75% EtOH and allowed to air dry for 15 minutes, after which RNA was dissolved in 25 μL of nuclease-free H2O. cDNA was synthesized from 4 μg of total RNA per condition according to the manufacturer's protocol (Applied Biosystems) and real-time PCR was performed with 800 nM primers, diluted with 4 μL SYBR Green Reaction Mix (Applied Biosystems). qRT-PCR samples were performed and analyzed in triplicate, from two independent experiments. […]

| SMILES | change in mRNA for either p38 isoform |
| --- | --- |
| COc1cc2c(Oc3ccc(NC(=O)C4(C(=O)Nc5ccc(F)cc5)CC4)cc3F)ccnc2cc1OCCOCCOCCOc1cc(-c2scnc2C)ccc1CNC(=O)[C@@H]1C[C@@H](O)CN1C(=O)[C@H](C(C)C)N1Cc2ccccc2C1=O [compound 46] | no significant changes in mRNA |
| COc1cc2c(Oc3ccc(NC(=O)C4(C(=O)Nc5ccc(F)cc5)CC4)cc3F)ccnc2cc1OCCCCOCCCCOCC(=O)N[C@H](C(=O)N1C[C@H](O)C[C@H]1C(=O)NCc1ccc(-c2scnc2C)cc1)C(C)(C)C [compound 50, N-(3-fluoro-4-((7-(4-(4-(2-(((S)-1-((2S,4R)-4-hydroxy-2-((4-(4-methylthiazol-5-yl)benzyl)carbamoyl)pyrrolidin-1-yl)-3,3-dimethyl-1-oxobutan-2-yl)amino)-2-oxoethoxy)butoxy)buto-xy)-6-methoxyquinolin-4-yl)oxy)phenyl)-N-(4-fluorophenyl)cyclopropane-1,1-dicarboxa-mide] | no significant changes in mRNA |
